Assay results: patent publication EP1075525B1, “DNA POLYMERASE FROM PYROBACULUM ISLANDICUM” (Roche Diagnostics GmbH, priority 1999, dated 2000)
Values belong to the compound of their own block, whether it stands above or below them.

Tested on: DNA polymerase of P. islandicum
Test: Non-radioactive DNA polymerase activity assay: influence of inhibitors and ions
Format: biochemical, Pyrobaculum islandicum
Conditions: for DNA polymerase activity: pH 7.5, 0.5 mM MgCl2, 0 mM KCl, 0.5 U

Compound: C[C@@]1(CO)[C@H](O)CC[C@@]2(C)[C@H]1CC[C@H]1C[C@@H]3C[C@@]12CC[C@]3(O)CO [Aphidicolin]
- DNA polymerase activity (50 µM (17 µg/ml) aphidicolin, 75°C): 100%
- DNA polymerase activity (200 µM (68 µg/ml) aphidicolin, 75°C): 70%
- DNA polymerase activity (500 µM (170 µg/ml) aphidicolin, 75°C): 55%
- DNA polymerase activity (2000 µM (680 µg/ml) aphidicolin, 75°C): 21%

- residual activity (in the presence of 100 mM KCl, 75°C, pH 7.3, 0.5 mM MgCl2): 7%
Compound: [Cl-].[K+] [KCl]

- DNA polymerase activity (1 mM N-Ethylmaleimid, preincubation of enzyme at 90°C for 20 min, 75°C): 40%
- DNA polymerase activity (2 mM N-Ethylmaleimid, preincubation of enzyme at 90°C for 20 min, 75°C): 30%
- DNA polymerase activity (5 mM N-Ethylmaleimid, preincubation of enzyme at 90°C for 20 min, 75°C): 0%
- DNA polymerase activity (in words) (after a preincubation with 5 mM NEM): total loss of activity
Compound: CCN1C(=O)C=CC1=O [N-Ethylmaleimid]

- DNA polymerase activity (ddGTP/dGTP = 5, 75°C): 95%
- DNA polymerase activity (ddGTP/dGTP = 20, 75°C): 53%
- inhibition of DNA polymerase (in words) (ddGTP/dGTP ratio of 2): No inhibition
Compound: Nc1nc2c(ncn2[C@H]2CC[C@@H](COP(=O)(O)OP(=O)(O)OP(=O)(O)O)O2)c(=O)[nH]1 [ddGTP]
